# Read-outs that look alike come from different tables or passages of the source.
# Key:
# [1] = target: T1, Presenilin-1-comprised γ-secretase (Homo sapiens, UniProt P49768); test: Aβ1-x ELISA in Presenilin-1 transfected PS1/PS2 double knockout mouse fibroblasts; type: cell-based
# T1 construct: expressed in transfected cells; host or cells: mouse fibroblasts derived from PS1/PS2 double knockout cells, pCF vector
# Excerpt: (§1) A131-x represents any Aβ peptides longer than Aβ1-23, including Aβ38, Aβ40, and Aβ42, since Aβ1-x is defined operationally by an ELISA assay using proprietary antibody mAb 266 for capture and proprietary antibody mAb 3D6 for detection. The epitope for mAb266 is Aβ16-23, and the epitope for mAb 3D6 is Aβ1-5. […] Aβ40 ELISA employed antibodies mAb 266 as capture and 2G3 (specific for Ab40) as detection, respectively. Furthermore, Aβ42 ELISA employed antibodies mAb 266 as capture and 21F12 as detection, respectively. Hybridomas producing antibodies against Aβ16-23 were generated by standard murine fusion procedures as detailed in Kohler and Milstein (Nature 256:495 1975) and U.S. Pat. No. 4,666,829 which are hereby incorporated by reference in their entireties. See also “Detailed Description” herein. Briefly, two BALB/c mice immunized with Aβ13-28 conjugated to 2C-11 (a T-cell receptor monoclonal antibody) were sacrificed and the spleens removed. Mixed splenocytes were obtained by pressing the spleens through a 30 mesh stainless steel screen. These were fused with P3X63Ag8 murine myeloma cells (aminopterin sensitive) at a fusion ratio of 10:1 in 35% polyethylene-glycol. These cells were plated out in 96 well tissue culture plates in the presence of 2×10^6 thymocytes/ml. Hybridomas were selected for by growing the cells in the presence of aminopterin poisoned Dulbecco's modified Eagle's media augmented with hypoxanthine, thymine and 10% fetal bovine serum. Hybridomas were screened for reactivity against Aβ13-28 and AAP protein via ELISA. Positive clones were sub-cloned twice. Aliquots of the clones were frozen and stored in liquid nitrogen. Supernatants from positive clones were produced in large quantities for further purification of monoclonal antibodies.
# (§2) For ELISA assays, each well of 96-well ELISA plates was coated with 100 μl of 10 μg/ml 266 in Well Coating Buffer (pH 8.5) at 4 degrees overnight, and blocked with 0.25% human BSA solution at 25 degrees for 120 minutes. The plate can be used directly without wash, after removing blocking solution.
# (§3) ELISA assays were performed at room temperature. Fifty μl of conditioned medium from overnight culture of transfected cells, with or without gamma secretase inhibitors, were added to each well of ELISA plates, and incubated for 1 hour. After washing plates with Tris-buffered saline (TBS) plus 0.05% Tween-20, 50 μl biotinylated 3D6 antibody at 0.5 μg/ml was added to each well and incubate for 45 minutes. […] Next, plates were washed with Tris-buffered saline (TBS) plus 0.05% Tween-20, and 50 μl substrate (1-step slow TMB-Elisa, Pierce, Woburn, Mass., USA, catalogue number: 34024) was added to each well and incubated for 15 min. Finally, substrate reactions were terminate by adding to each well 15 ul 2 NH2SO4, and OD readings were obtained on SpectraMax Plus (Molecular Devices, Sunnyvale, Calif., USA). The Aβ concentration of samples was then obtained by comparing sample OD readings to those of standards.
# (§4) EC50 values were derived by curve fitting of Aβ1-x levels, for samples treated with various concentrations of gamma secretase inhibitors, with XLfit software program (IDBS, Alameda, Calif., USA). Differences in EC50 values obtained for Presenilin-1 transfected cells and Presenilin-2 transfected cells exposed to a test compound served as an indicator of differential inhibition.
# (§5) Transfected mouse fibroblasts derived from the PS1/PS2 double knockout cells are grown at 37 degree under 10% CO2 in Dulbecco's modified Eagle's medium (DMEM) containing 2-10% fetal bovine serum (FBS) and 100 μg/ml penicillin/streptomycin (Pen/Strp) (Invitrogen Corporation, Carlsbad, Calif., USA).
# (§6) Cell culture medium is then removed from the transfected cell lines and analyzed for Aβ1-x levels by ELISA assay, as described in Example 1. ELISA assays are performed using ELISA plates coated with the mAb 266 to capture Aβ peptides and then by detecting Aβ peptides with biotinylated mAb 3D6.
# [2] = tested on: Presenilin-1-comprised γ-secretase relative to Presenilin-2-comprised γ-secretase; test: PS1/PS2 selectivity: ratio of EC50 in Presenilin-2 and Presenilin-1 transfected cells; type: cell-based, human; settings: for PS2/PS1 EC50 ratio: EC50 of Presenilin-2 transfected cells over Presenilin-1 transfected cells
# Excerpt: as §4
# as §6, with “3D6. EC50 values are derived for all of the test compounds. Differences in EC50 values obtained for Presenilin-1 transfected cells and Presenilin-2 transfected cells exposed to a test compound serve as an indicator of differential inhibition.” for “3D6.”
# For example, several tested compounds are sulfonamide compounds, while several are non-sulfonamide compounds. The ratio of the EC50 value obtained for Presenilin-2 transfected cells and Presenilin-1 transfected cells (indicated in the last column of Table I) indicates the degree to which the test compound is capable of preferentially inhibiting Presenilin-1. […] In Table 2, the values shown in columns A, B and C are EC50 values (nM). Where inhibition was very low, EC50 values were not generated by the program; thus EC50 values are not provided. Rather, percent of inhibition was estimated based on the inhibition curve generated by the program. Percentages indicate percentage inhibition at a compound concentration of 10 uM. […]
# [3] = target: T2, Presenilin-2-comprised γ-secretase (Homo sapiens, UniProt P49810); test: Aβ1-x ELISA in Presenilin-2 transfected PS1/PS2 double knockout mouse fibroblasts; type: cell-based; settings: for inhibition at 10 µM: compound concentration of 10 uM, estimated from the inhibition curve
# T2 construct: expressed in transfected cells; host or cells: mouse fibroblasts derived from PS1/PS2 double knockout cells, pCF vector
# Excerpt: as §1, §2, §3, §4, §5, §6
# 293sw = 293sw IC50 of gamma-secretase inhibitors; type: cell-based
# [4] = column A, Aβ1-x, Presenilin-1 transfected cells, overnight, read-out: PS1 EC50 (nM) A
# [5] = column B, Aβ1-x, Presenilin-1 transfected cells, overnight, read-out: PS1 EC50 (nM) B
# [6] = column A, read-out: PS2 percentage inhibition, column A
# [7] = column B, read-out: PS2 percentage inhibition, column B
# [8] = column A, Aβ1-x, Presenilin-2 transfected cells, overnight, read-out: PS2 EC50* (nM) A
# [9] = column B, Aβ1-x, Presenilin-2 transfected cells, overnight, read-out: PS2 EC50* (nM) B
# [10] = column C, Aβ1-x, Presenilin-1 transfected cells, overnight, read-out: PS1 EC50 (nM) C
# [11] = column C, Aβ1-x, Presenilin-2 transfected cells, overnight, read-out: PS2 EC50* (nM) C
# [12] = mean values from 2 independent experiments (FIG. 11)
Compound,"EC50 [1, 4] [nM]","EC50 [1, 5] [nM]",PS2/PS1 EC50 ratio [2],"inhibition at 10 µM [3, 6] [%]","inhibition at 10 µM [3, 7] [%]","EC50 [3, 8] [nM]","EC50 [3, 9] [nM]","EC50 [1, 10] [nM]","EC50 [3, 11] [nM]","EC50 ([1]; column A, bound given in μM, read-out: PS1 EC50 A) [nM]","EC50 ([1]; column B, bound given in μM, read-out: PS1 EC50 B) [nM]","EC50 ([3]; column A, bound given in μM, read-out: PS2 EC50 A) [nM]","EC50 ([3]; column B, bound given in μM, read-out: PS2 EC50 B) [nM]",IC50 (293sw) [nM],"fold more selective for PS1 [2, 12] [fold]","fold more selective for PS2 [2, 12] [fold]"
C[C@H](c1ccc(F)cc1CCCC(=O)O)N(c1cc(F)ccc1F)S(=O)(=O)c1ccc(Cl)cc1 [reference compound],21,17,12,–,–,223,247,–,–,–,–,–,–,–,–,–
O=C1NCCCC[C@H]1N(Cc1cc2ccccc2o1)S(=O)(=O)c1ccc(Cl)cc1,30,63,46,–,–,2420,1880,50,2380,–,–,–,–,–,–,–
CCS(=O)(=O)CC[C@@H](C)N(c1cc(Cl)ccc1Cl)S(=O)(=O)c1ccc(Cl)cc1,153,868,10,–,–,5000,5700,598,–,–,–,–,–,182,–,–
O=C1NCCCC[C@H]1N(Cc1ccc(Br)cc1)S(=O)(=O)c1ccc(Cl)cc1,106,259,15,–,–,1920,3410,159,–,–,–,–,–,243,–,–
Cn1nnc2cc(CN([C@@H]3CCCCNC3=O)S(=O)(=O)c3ccc(Cl)cc3)ccc21,40,75,15,–,–,589,924,42,–,–,–,–,–,51,–,–
O=C1NCCCC[C@H]1N(Cc1ccc(Br)cc1)S(=O)(=O)CC(F)(F)F,1280,686,>10,20,19,–,–,–,–,–,–,–,–,308,–,–
"CC(C)C[C@H](NC(=O)[C@H](Cc1ccccc1)C[C@@H](O)[C@H](Cc1ccccc1)NC(=O)OC(C)(C)C)C(=O)N[C@@H](Cc1ccccc1)C(N)=O [L-685,458, reference compound]",–,–,–,–,–,–,–,–,–,–,–,–,–,–,~3,–
COc1ccc(CN(C2CCCCNC2=O)S(=O)(=O)c2ccc(Cl)cc2)cc1OC (stereo not drawn),228,425,˜30,45,50,–,–,–,–,–,–,–,–,–,–,–
C[C@H](NC(=O)[C@@H](O)c1cc(F)cc(F)c1)C(=O)N[C@@H]1C(=O)N(C)c2ccccc2-c2ccccc21,–,–,–,–,–,–,–,–,–,–,–,–,–,0.064,–,–
COc1ccc(CN([C@H]2CCCCNC2=O)S(=O)(=O)c2ccc(Cl)cc2)cc1OC,–,–,–,–,–,–,–,–,–,> 10000,> 10000,> 10000,> 10000,10000,–,–
"C[C@H](NC(=O)Cc1cc(F)cc(F)c1)C(=O)N[C@H](C(=O)OC(C)(C)C)c1ccccc1 [DAPT, reference compound]",–,–,–,–,–,–,–,–,–,–,–,–,–,–,–,2

# The next lines start with results.
"EC50 [1, 4] [nM]","EC50 [1, 5] [nM]",PS2/PS1 EC50 ratio [2],"inhibition at 10 µM [3, 6] [%]","inhibition at 10 µM [3, 7] [%]","EC50 [3, 8] [nM]","EC50 [3, 9] [nM]","EC50 [1, 10] [nM]","EC50 [3, 11] [nM]","EC50 ([1]; column A, bound given in μM, read-out: PS1 EC50 A) [nM]","EC50 ([1]; column B, bound given in μM, read-out: PS1 EC50 B) [nM]","EC50 ([3]; column A, bound given in μM, read-out: PS2 EC50 A) [nM]","EC50 ([3]; column B, bound given in μM, read-out: PS2 EC50 B) [nM]",Compound,IC50 (293sw) [nM],"fold more selective for PS1 [2, 12] [fold]","fold more selective for PS2 [2, 12] [fold]"
2170,1980,>10,1,0,–,–,–,–,–,–,–,–,C/C(=C\c1ccccc1)CN([C@@H]1CCNC1=O)S(=O)(=O)c1ccc(Cl)cc1,337,–,–
19,19,1.8,–,–,30,38,–,–,–,–,–,–,O=C(NCc1ccccc1)c1ccc(CN([C@@H]2CCCCNC2=O)S(=O)(=O)c2ccc(Cl)cc2)cc1,10,–,–
1390,787,4,–,–,5860,3320,–,–,–,–,–,–,CCC(C)N(C(C)CC)S(=O)(=O)c1ccc(Cl)nc1 (stereo not drawn),388,–,–
46,65,61,–,–,4000,2780,–,–,–,–,–,–,O=C1NCCCC[C@H]1N(C/C=C/c1cccnc1)S(=O)(=O)c1ccc(Cl)cc1,42,–,–
136,161,22,–,–,3000,3460,–,–,–,–,–,–,COc1ccc(CN(C2CC(C)CCC2C)S(=O)(=O)c2ccc(Cl)cc2)cc1 (stereo not drawn),176,–,–
84,53,23,–,–,1980,1840,114,–,–,–,–,–,Cn1nnc2cc(CN([C@@H]3CCCCNC3=O)S(=O)(=O)c3ccc(Cl)nc3)ccc21,238,–,–
3720,6960,>10,28,4,–,–,–,–,–,–,–,–,O=C1NCCCC[C@H]1N(CCCN1C(=O)c2ccccc2C1=O)S(=O)(=O)c1ccc(Cl)cc1,221,–,–
30,50,10,–,–,585,412,74,553,–,–,–,–,O=C1NCCCC[C@H]1N(Cc1ccc(-c2nccs2)cc1)S(=O)(=O)c1ccc(Cl)cc1,77,–,–
10,37,2,–,–,45,44,17.5,–,–,–,–,–,C[C@H](NC(=O)[C@@H](O)c1cc(F)cc(F)c1)C(=O)N[C@H](C(=O)NCC1CN(c2ccccc2)CCO1)c1ccccc1 (stereo partly drawn),41,–,–
370,263,˜30,47,44,–,–,–,–,–,–,–,–,O=C1NCCCC[C@H]1N(Cc1cnc(N2CCCCC2)s1)S(=O)(=O)c1ccc(Cl)cc1,121,–,–
20,5.9,12,–,–,175,156,26,263,–,–,–,–,O=C1NCCCC[C@H]1N(Cc1ccc(-c2ncon2)cc1)S(=O)(=O)c1ccc(Cl)cc1,16,–,–
143,139,4,–,–,465,777,–,–,–,–,–,–,C[C@H](NC(=O)c1ccc(CN([C@@H]2CCCCNC2=O)S(=O)(=O)c2ccc(Cl)cc2)cc1)c1ccccc1,–,–,–

# Reference: US20080045499A1, “Preferential Inhibition of Presenilin-1” (Elan Pharmaceuticals, Inc., priority 2006, published 2008)
